Test results reported in publication PMC10746543, “Design principles for cyclin K molecular glue degraders” (Nature Chemical Biology, 2023).
Values joined by “and” are separate entries in the source; they are usually repeats but may differ in a detail not shown here. Equal values may be shown once.

Columns and labels:
[1] = target: T1, CDK12–cyclin K and DDB1 (Homo sapiens, UniProt Q16531+Q9NYV4, K965R); assay: TR-FRET ternary complex formation assay (compound titration); assay type: binding; settings: for TR-FRET signal at compound concentration: replicate titrations
T1 construct: His6–CDK12 (a.a. 713–1,052); full-length or beta-propeller B domain deletion (ΔBPB: a.a. 396–705 deleted) constructs of His6–DDB1ΔBPB, StrepII–Avi–DDB1, or His6–Spy–DDB1; made in house; host or cells: Trichoplusia ni High Five insect cells (baculovirus)
T1 sequence (Q9NYV4 713-1052 K965R): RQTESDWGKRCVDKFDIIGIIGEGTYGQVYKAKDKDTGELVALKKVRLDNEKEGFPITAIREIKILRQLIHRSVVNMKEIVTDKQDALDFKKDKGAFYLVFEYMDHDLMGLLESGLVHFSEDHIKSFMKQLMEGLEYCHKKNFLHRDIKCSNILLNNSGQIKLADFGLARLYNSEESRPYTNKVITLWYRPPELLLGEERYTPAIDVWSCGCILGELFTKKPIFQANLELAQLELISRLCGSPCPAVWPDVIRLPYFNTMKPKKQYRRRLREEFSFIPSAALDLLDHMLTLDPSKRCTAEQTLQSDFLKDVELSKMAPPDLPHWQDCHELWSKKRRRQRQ
T1 sequence (O75909 1-267 partner): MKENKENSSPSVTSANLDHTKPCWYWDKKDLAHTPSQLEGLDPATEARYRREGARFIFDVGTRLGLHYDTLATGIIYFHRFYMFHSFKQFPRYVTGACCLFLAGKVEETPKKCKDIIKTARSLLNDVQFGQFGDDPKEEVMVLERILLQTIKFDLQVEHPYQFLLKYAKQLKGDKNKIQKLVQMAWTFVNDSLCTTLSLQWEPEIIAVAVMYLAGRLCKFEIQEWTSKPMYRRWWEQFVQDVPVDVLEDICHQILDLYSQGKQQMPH
T1 sequence (Q16531 whole entry): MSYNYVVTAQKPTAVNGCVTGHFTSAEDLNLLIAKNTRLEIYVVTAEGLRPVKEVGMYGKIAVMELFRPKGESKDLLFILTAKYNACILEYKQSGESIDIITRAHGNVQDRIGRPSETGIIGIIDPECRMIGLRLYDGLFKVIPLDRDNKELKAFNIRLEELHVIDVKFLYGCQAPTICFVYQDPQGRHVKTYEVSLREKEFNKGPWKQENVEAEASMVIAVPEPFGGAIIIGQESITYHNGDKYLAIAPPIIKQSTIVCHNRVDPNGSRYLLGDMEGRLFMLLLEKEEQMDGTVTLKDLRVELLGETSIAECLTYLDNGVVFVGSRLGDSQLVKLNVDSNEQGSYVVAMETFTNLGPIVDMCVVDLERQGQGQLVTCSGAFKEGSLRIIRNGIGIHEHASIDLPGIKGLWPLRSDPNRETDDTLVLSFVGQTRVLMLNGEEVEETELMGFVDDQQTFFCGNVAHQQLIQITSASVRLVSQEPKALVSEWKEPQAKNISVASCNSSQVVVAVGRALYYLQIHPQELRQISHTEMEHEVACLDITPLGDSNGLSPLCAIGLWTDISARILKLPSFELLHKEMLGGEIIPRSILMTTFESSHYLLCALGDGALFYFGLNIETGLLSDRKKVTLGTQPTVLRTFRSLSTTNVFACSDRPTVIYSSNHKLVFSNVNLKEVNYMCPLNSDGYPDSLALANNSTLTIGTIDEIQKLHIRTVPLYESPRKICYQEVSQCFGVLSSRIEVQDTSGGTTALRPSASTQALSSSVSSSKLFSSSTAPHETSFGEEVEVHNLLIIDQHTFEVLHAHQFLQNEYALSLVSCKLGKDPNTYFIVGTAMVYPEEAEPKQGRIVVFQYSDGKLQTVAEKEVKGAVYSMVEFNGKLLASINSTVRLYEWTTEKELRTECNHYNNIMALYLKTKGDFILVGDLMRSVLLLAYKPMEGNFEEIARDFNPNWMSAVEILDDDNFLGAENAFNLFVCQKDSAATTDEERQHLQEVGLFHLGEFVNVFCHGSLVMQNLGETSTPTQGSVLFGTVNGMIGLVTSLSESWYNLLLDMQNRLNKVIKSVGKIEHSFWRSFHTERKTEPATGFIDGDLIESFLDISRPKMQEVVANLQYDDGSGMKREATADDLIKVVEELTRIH
Procedure, shortened: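 Delayed (70 μs) time-resolved read; FRET computed as 520 nm over 490 nm emission.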

[2] = test system: cyclin K; assay: Label-free quantitative mass spectrometry in MDA-MB-231 cells, cyclin K; assay type: cell-based, human
Procedure, shortened: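 MDA-MB-231 cells treated 5 h with 1 µM cyclin K degrader or DMSO. Lysates digested with LysC and trypsin, then analysed by label-free diaPASEF LC-MS on a TimsTOF Pro2 with directDIA search and MS1 precursor quantification. Protein abundances scaled and analysed with limma.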

[3] = compound concentration 62.6401 nM
[4] = compound concentration 125.28 nM
[5] = compound concentration 244.8 nM
[6] = compound concentration 993.601 nM
[7] = compound concentration 2001.6 nM

## CCC(CO)Nc1nc(NCc2ccc(-c3ccccn3)cc2)c2ncn(C(C)C)c2n1 (centres unmarked) [CR8, reference compound]
[1]; compound concentration 30.96 nM, raw titration data
  TR-FRET signal at compound concentration 30.96 nM: 3.429 and 2.93 and 2.851 and 3.1006 and 3.279 and 3.156 and 3.142 and 2.862 and 2.958 and 2.99 and 2.943 and 2.896 and 3.197 and 3.095 and 3.319 and 3.517 and 3.418 and 3.349
[1]; compound concentration 30.96 nM
  TR-FRET signal at compound concentration: 3.429 and 2.93 and 2.851 and 3.1006 and 3.279 and 3.156 and 3.142 and 2.862
[1]; [3]
  TR-FRET signal, individual replicate: 3.992 and 3.667 and 3.67 (2×) and 3.796 and 3.836 and 3.683 and 3.652
  TR-FRET signal at compound concentration: 3.992 and 3.667 and 3.67 (2×) and 3.796 and 3.836 and 3.683 and 3.652
[1]; compound concentration 62.6401 nM, raw replicate titration data
  TR-FRET signal at compound concentration 62.6401 nM: 3.992 and 3.667 and 3.67 (2×) and 3.796 and 3.836 and 3.683 and 3.652 and 3.6831 and 3.54 and 3.542 and 3.62 and 3.792 and 3.69 and 3.855 and 3.914 and 3.849 and 3.7896
[1]; compound concentration 62.6401 nM, raw titration data
  TR-FRET signal at compound concentration 62.6401 nM: 3.992 and 3.667 and 3.67 (2×) and 3.796 and 3.836 and 3.683 and 3.652 and 3.6831 and 3.54 and 3.542 and 3.62 and 3.792 and 3.69 and 3.855 and 3.914 and 3.849 and 3.7896
[1]; [4]
  TR-FRET signal, individual replicate: 4.095 and 3.873 and 3.877 and 4.034 and 3.962 and 3.842 and 3.836 and 3.935
  TR-FRET signal at compound concentration: 4.095 and 3.873 and 3.877 and 4.034 and 3.962 and 3.842 and 3.836 and 3.935
[1]; compound concentration 125.28 nM, raw replicate titration data
  TR-FRET signal at compound concentration 125.28 nM: 4.095 and 3.873 and 3.877 and 4.034 and 3.962 and 3.842 and 3.836 and 3.935 and 3.986 and 3.722 and 3.719 and 3.7404 and 3.636 and 3.869 and 4.026 and 4.013 and 4.003 and 3.8874
[1]; compound concentration 125.28 nM, raw titration data
  TR-FRET signal at compound concentration 125.28 nM: 4.095 and 3.873 and 3.877 and 4.034 and 3.962 and 3.842 and 3.836 and 3.935 and 3.986 and 3.722 and 3.719 and 3.7404 and 3.636 and 3.869 and 4.026 and 4.013 and 4.003 and 3.8874
[1]; [5]
  TR-FRET signal, individual replicate: 4.223 and 4.06 and 4.046 and 4.132 and 4.096 and 3.922 and 3.897 and 4.118
  TR-FRET signal at compound concentration: 4.223 and 4.06 and 4.046 and 4.132 and 4.096 and 3.922 and 3.897 and 4.118
[1]; compound concentration 244.8 nM, raw replicate titration data
  TR-FRET signal at compound concentration 244.8 nM: 4.223 and 4.06 and 4.046 and 4.132 and 4.096 and 3.922 and 3.897 and 4.118 and 4.095 and 3.806 and 3.805 and 3.852 and 3.955 and 3.967 and 4.129 and 4.013 and 4.0726 and 3.918
[1]; compound concentration 244.8 nM, raw titration data
  TR-FRET signal at compound concentration 244.8 nM: 4.223 and 4.06 and 4.046 and 4.132 and 4.096 and 3.922 and 3.897 and 4.118 and 4.095 and 3.806 and 3.805 and 3.852 and 3.955 and 3.967 and 4.129 and 4.013 and 4.0726 and 3.918
[1]; [6]
  TR-FRET signal, individual replicate: 4.301 and 4.232 and 4.095 and 4.244 and 4.268 and 3.98 and 3.937 and 4.179
  TR-FRET signal at compound concentration: 4.301 and 4.232 and 4.095 and 4.244 and 4.268 and 3.98 and 3.937 and 4.179
[1]; compound concentration 993.601 nM, raw replicate titration data
  TR-FRET signal at compound concentration 993.601 nM: 4.301 and 4.232 and 4.095 and 4.244 and 4.268 and 3.98 and 3.937 and 4.179 and 4.188 and 3.896 and 3.831 and 3.928 and 4.083 and 4.021 and 4.231 and 4.144 and 3.981
[1]; compound concentration 993.601 nM, raw titration data
  TR-FRET signal at compound concentration 993.601 nM: 4.301 and 4.232 and 4.095 and 4.244 and 4.268 and 3.98 and 3.937 and 4.179 and 4.188 and 3.896 and 3.831 and 3.928 and 4.083 and 4.021 and 4.231 and 4.144 and 3.981
[1]; [7]
  TR-FRET signal, individual replicate: 4.322 and 4.194 and 4.162 and 4.144 and 4.309 and 4.034 and 4.299
  TR-FRET signal at compound concentration: 4.322 and 4.194 and 4.162 and 4.144 and 4.309 and 4.034 and 4.299
[1]; compound concentration 2001.6 nM, raw replicate titration data
  TR-FRET signal at compound concentration 2001.6 nM: 4.322 and 4.194 and 4.162 and 4.144 and 4.309 and 4.034 and 4.299 and 4.197 and 3.982 and 3.892 and 3.93 and 4.094 and 4.059 and 4.292 and 4.196 and 4.177 and 4.087
[1]; compound concentration 2001.6 nM, raw titration data
  TR-FRET signal at compound concentration 2001.6 nM: 4.322 and 4.194 and 4.162 and 4.144 and 4.309 and 4.034 and 4.299 and 4.197 and 3.982 and 3.892 and 3.93 and 4.094 and 4.059 and 4.292 and 4.196 and 4.177 and 4.087
[2]; individual replicates, sheet EDF7
  cyclin K abundance (label-free MS): 122.337 and 71.6906
[2]; label-free quantitative MS, replicate values
  cyclin K abundance (label-free MS): 122.337 and 71.6906
[2]; normalised to DMSO = 1, replicate values
  CCNK peptide count (DMSO-normalised): 0.06684 and 0.03988
[2]; sheet EDF7
  average CCNK peptide count: 97.0136
